Assay results published in patent US20140212382A1, “PURINE MONOPHOSPHATE PRODRUGS FOR TREATMENT OF VIRAL INFECTIONS” (EMORY UNIVERSITY, priority 2011, published 2014).
Like-named read-outs stand apart in the source and are kept apart here.

How the values were obtained:
[1] = Cytotoxicity in HCV replicon assay (ΔCt rRNA); format: cell-based; settings: human, HCV Replicon (Huh7)
Procedure: (§1) Huh 7 Clone B cells containing HCV Replicon RNA were seeded in a 96-well plate at 5000 cells/well, and the compounds tested at 10 μM in triplicate immediately after seeding. Following five days incubation (37° C., 5% CO2), total cellular RNA was isolated using the versaGene RNA purification kit from Gentra. Replicon RNA and an internal control (TaqMan rRNA control reagents, Applied Biosystems) were amplified in a single step multiplex Real Time RT-PCR Assay. The antiviral effectiveness of the compounds was calculated by subtracting the threshold RT-PCR cycle of the test compound from the threshold RT-PCR cycle of the no-drug control (ΔCt HCV). A ΔCt of 3.3 equals a 1-log reduction (equal to 90% less starting material) in Replicon RNA levels. The cytotoxicity of the compounds was also calculated using the ΔCt rRNA values. (2′-C-Me-C) was used as the control. To determine EC90 and IC50 values^2, ΔCt: values were first converted into a fraction of the starting material,^3 and then were used to calculate the % inhibition. The data on three compounds (Compound 12, Compound 8a, and compound 8b-up) is shown below in Table 3.

[2] = tested on: HCV Replicon RNA in Huh 7 Clone B cells; assay: HCV replicon assay; format: cell-based; settings: Hepatitis C virus
Procedure: as §1

[3] = tested on: MtDNA, HepG2 Hepatoma cells; assay: Mitochondrial toxicity in HepG2 cells: mitochondrial DNA content; format: cell-based
Text: A real-time PCR assay to accurately quantify mitochondrial DNA content has been developed (see Stuyver L J, Lostia S, Adams M, Mathew J S, Pai B S, Grier J, Tharnish P M, Choi Y, Chong Y, Choo H, Chu C K, Otto M J, Schinazi R F. Antiviral activities and cellular toxicities of modified 2′,3′-dideoxy-2′,3′-didehydrocytidine analogs. Antimicrob. Agents Chemother. 2002; 46: 3854-60). This assay was used in all studies described in this application that determine the effect of nucleoside analogs on mitochondrial DNA content. In this assay, low-passage-number HepG2 cells were seeded at 5,000 cells/well in collagen-coated 96-well plates. Nucleoside monophosphate analogs were added to the medium to obtain final concentrations of 0 μM, 0.1 μM, 10 μM and 100 μM. On culture day 7, cellular nucleic acids were prepared by using commercially available columns (RNeasy 96 kit; Qiagen). […] The mitochondrial cytochrome c oxidase subunit II (COXII) gene and the β-actin or rRNA gene were amplified from 5 μl of the eluted nucleic acids using a multiplex Q-PCR protocol with suitable primers and probes for both target and reference amplifications. For COXII the following sense, probe and antisense primers are used, respectively: 5′-[…]-3′,5′-tetrachloro-6-carboxyfluorescein-[…]-TAMRA-3′ and 5′-[…]-3′. For exon 3 of the β-actin gene (GenBank accession number E01094) the sense, probe, and antisense primers are 5′-[…]-3′,5′-6-[…]-3′ and 5′-[…]-3′, respectively. The primers and probes for the rRNA gene are commercially available from Applied Biosystems. Since equal amplification efficiencies were obtained for all genes, the comparative CT method was used to investigate potential inhibition of mitochondrial DNA synthesis. The comparative CT method uses arithmetic formulas in which the amount of target (COXII gene) is normalized to the amount of an endogenous reference (the β-actin or rRNA gene) and is relative to a calibrator (a control with no drug at day 7). The arithmetic formula for this approach is given by 2-ΔΔCT, where ΔΔCT is (CT for average target test sample−CT for target control)−(CT for average reference test−CT for reference control) (see Johnson M R, K Wang, J B Smith, M J Heslin, R B Diasio. Quantitation of dihydropyrimidine dehydrogenase expression by real-time reverse transcription polymerase chain reaction. Anal. Biochem. 2000; 278:175-184). A decrease in mitochondrial DNA content in cells grown in the presence of drug would indicate mitochondrial toxicity.
(§2) The effect of compounds 8b-up, 12, and 8a on nuclear or mitochondrial DNA, or lactic acid production, in HepG2 Hepatoma cells was analyzed over a 14 day period. The procedure outlined in section (i) above was used for this analysis.

Huh7 cells = assay: Cellular pharmacology in Huh7 cells (LC/MS of nucleotides formed); format: in vitro ADME; settings: 50 μM, 4 hr
Procedure: Similar to the method outlined for HepG2 cellular pharmacology, compounds are incubated in Huh-7 cells for 4 hr at the concentration of 50 μM in triplicate. […] Ice-cold 70% methanol can be used as the extraction solvent. ddATP (10 nM) can be used as the internal standard.

PBM cells = assay: Cellular pharmacology in PBM cells (LC-MS/MS of intracellular metabolites); format: in vitro ADME; settings: 50 μM, 4 h, 37° C.
Procedure: Test compounds are incubated in PBM cells at 50 μM for 4 h at 37° C. Then the drug containing media is removed and the PBM cells are washed twice with PBS to remove extracellular drugs. The intracellular drugs are extracted from 10×10^6 PBM cells using 1 mL 70% ice-cold methanol (containing 10 nM of the internal standard ddATP). Following precipitation, the samples are maintained at room temperature for 15 min followed by vortexing for 30 sec, and then stored 12 h at −20° C. The supernatant is then evaporated to dryness. Dry samples would be stored at −20° C. until LC-MS/MS analysis. Prior to analysis, each sample is reconstituted in 100 μL mobile phase A, and centrifuged at 20,000 g to remove insoluble particulates.
Gradient separation is performed on a Hypersil GOLD column (100×1.0 mm, 3 μm particle size; Thermo Scientific, Waltham, Mass., USA). Mobile phase A consists of 2 mM ammonium phosphate and 3 mM hexylamine. Acetonitrile is increased from 10 to 80% in 15 min, and kept at 80% for 3 min. Equilibration at 10% acetonitrile lasts 15 min. The total run time is 33 min. The flow rate is maintained at 50 μL/min and a 10 μL injection is used. The autosampler and the column compartment are typically maintained at 4.5 and 30° C., respectively.
The first 3.5 min of the analysis is diverted to waste. The mass spectrometer is operated in positive ionization mode with a spray voltage of 3.2 kV.

[4] = tested on: nuclear DNA, HepG2 Hepatoma cells; assay: Mitochondrial toxicity in HepG2 cells: nuclear DNA content; format: cell-based
Procedure: This assay was used in all studies described in this application that determine the effect of nucleoside analogs on mitochondrial DNA content. In this assay, low-passage-number HepG2 cells were seeded at 5,000 cells/well in collagen-coated 96-well plates. […] On culture day 7, cellular nucleic acids were prepared by using commercially available columns (RNeasy 96 kit; Qiagen). […] The mitochondrial cytochrome c oxidase subunit II (COXII) gene and the β-actin or rRNA gene were amplified from 5 μl of the eluted nucleic acids using a multiplex Q-PCR protocol with suitable primers and probes for both target and reference amplifications. […] For exon 3 of the β-actin gene (GenBank accession number E01094) the sense, probe, and antisense primers are 5′-[…]-3′,5′-6-[…]-3′ and 5′-[…]-3′, respectively. The primers and probes for the rRNA gene are commercially available from Applied Biosystems. […] The comparative CT method uses arithmetic formulas in which the amount of target (COXII gene) is normalized to the amount of an endogenous reference (the β-actin or rRNA gene) and is relative to a calibrator (a control with no drug at day 7). The arithmetic formula for this approach is given by 2-ΔΔCT, where ΔΔCT is (CT for average target test sample−CT for target control)−(CT for average reference test−CT for reference control) (see Johnson M R, K Wang, J B Smith, M J Heslin, R B Diasio. Quantitation of dihydropyrimidine dehydrogenase expression by real-time reverse transcription polymerase chain reaction. Anal. Biochem. 2000; 278:175-184). A decrease in mitochondrial DNA content in cells grown in the presence of drug would indicate mitochondrial toxicity.
as §2

[5] = Huh 7 Clone B cells containing HCV replicon RNA
[6] = Huh-7, 120 h, HCV Replicon (Huh7), five days incubation, read-out: EC50
[7] = 1 μM, HepG2 Hepatoma cells, 14 day assay
[8] = 10 μM, HepG2 Hepatoma cells, 14 day assay
[9] = 50 μM, HepG2 Hepatoma cells, 14 day assay

Molecule CCOC(=O)CCc1ccccc1OP(=O)(N[C@@H](C)C(=O)OCC)OC[C@H]1O[C@@H](n2cnc3c(N)nc(N)nc32)C(C)(F)C1O (stereo partly drawn) has a CC50 at 5 day [1] greater than 10 µM, an EC50 ([2]; Huh-7, 120 h) of 700 nM and an EC90 ([2]; Huh-7, 120 h) of 2.9 µM.

Work on CC(C)OC(=O)CCNC(=O)[C@@H]1OP(=O)(OC[C@H]2O[C@@H](n3cnc4c(N)nc(N)nc43)C(C)(O)C2O)OCC1(C)C (stereo partly drawn) yielded a CC50 at 5 day [1, 5] greater than 10 µM, an EC50 [2, 6] greater than 10000 nM and an EC50 ([2]; Huh-7, HCV Replicon (Huh7), second line printed as EC50 in the entry, read-out: EC50) greater than 10000 nM.

With CCOC(=O)CCc1ccccc1O[P@@](=O)(N[C@@H](C)C(=O)OCC)OC[C@H]1O[C@@H](n2cnc3c(N)nc(N)nc32)C(C)(O)C1O (stereo partly drawn) the CC50 at 5 day [1] was greater than 10 µM, the EC50 ([2]; Huh-7, 120 h) was 200 nM and the EC90 ([2]; Huh-7, 120 h) was 0.7 µM.

For CCOC(=O)CCc1ccccc1O[P@](=O)(N[C@@H](C)C(=O)OCC)OC[C@H]1O[C@@H](n2cnc3c(N)nc(N)nc32)C(C)(O)C1O (stereo partly drawn), the CC50 at 5 day [1] was greater than 3 µM, the EC50 ([2]; Huh-7, 120 h) was 2300 nM and the EC90 ([2]; Huh-7, 120 h) was 7.7 µM.

In the case of CCOC(=O)[C@H](C)NP(=O)(OCC1O[C@@H](n2cnc3c(N)nc(N)nc32)C(C)(O)C1O)Oc1ccccc1 (stereo in doubt) [Compound 8a, (2S)-ethyl 2-((((2S,3R,4R,5R)-5-(2,6-diamino-9H-purin-9-yl)-3,4-dihydroxy-4-methyltetrahydrofuran-2-yl)methoxy)(phenoxy)phosphorylamino)propanoate], the “effect on nuclear or mitochondrial DNA or lactic acid production” value ([3]; up to 50 μM, HepG2 Hepatoma cells, 14 day assay, summary also covers nuclear DNA and lactic acid) is reported as “no significant effect”, the “intracellular guanine analog triphosphate” value (Huh7 cells) is reported as “also detected” and the “intracellular level of 2,6-diamino-2′-C-Me purine triphosphate” value (Huh7 cells) is reported as “unexpectedly high levels”.

For CC1(O)C(O)[C@@H](CO)O[C@H]1n1cnc2c(N)nc(N)nc21 (stereo partly drawn) [Compound 12, 2,6-diamino-2′-C-Me purine nucleoside], the “intracellular guanine analog triphosphate” value (Huh7 cells) was “major triphosphate detected” and the “intracellular level of 2,6-diamino-2′-C-Me purine triphosphate” value (Huh7 cells) was “extremely low levels”.

For Nc1nc(N)c2ncn([C@H]3CO[C@@H](CO)O3)c2n1 [DAPD], the “intracellular level of DAPD” value (PBM cells) was “Low levels”, the “intracellular level of DAPD-TP / phosphorylated forms of DAPD” value (PBM cells) was “no phosphorylated forms of DAPD were detected” and the “intracellular level of DXG-TP” value (PBM cells) was “high levels”.

With CCOC(=O)[C@H](C)NP(=O)(OC[C@@H]1OC[C@H](n2cnc3c(N)nc(N)nc32)O1)Oc1ccccc1 (stereo partly drawn) [RS-864] the “intracellular level of DAPD” value (PBM cells) was “low levels”, the “intracellular level of DAPD-TP / phosphorylated forms of DAPD” value (PBM cells) was “very high levels” and the “intracellular level of DXG-TP” value (PBM cells) was “low levels”. The “ratio of DXG-TP (6-OH) to DAPD-TP (6-NH2)” value (PBM cells; LC/MS/MS) was 2 to 98.

For CCOC(=O)CCc1ccccc1OP(=O)(N[C@H](C)C(=O)OCC)OC[C@H]1O[C@@H](n2cnc3c(N)nc(N)nc32)C(C)(O)C1O (stereo partly drawn) [drawing 49], the “% Inhibition nuclear DNA” value [4, 7] was 30%, the “% Inhibition nuclear DNA” value [4, 8] was 16% and the “% Inhibition nuclear DNA” value [4, 9] was 10%. For the same molecule, the “% Inhibition MtDNA” value [3, 7] was 24%, the “% Inhibition MtDNA” value [3, 8] was 34% and the “% Inhibition MtDNA” value [3, 9] was 43%.

In the case of CC1(O)C(O)[C@@H](CO)O[C@H]1n1cnc2c(N)nc(N)nc21 (stereo partly drawn) [drawing 50], the “% Inhibition nuclear DNA” value ([4]; human, 14 day, 1 μM) is reported as 22%, the “% Inhibition nuclear DNA” value ([4]; human, 14 day, 10 μM) is reported as 46% and the “% Inhibition nuclear DNA” value ([4]; human, 14 day, 50 μM) is reported as 21%. For the same molecule, the “% Inhibition MtDNA” value ([3]; human, 14 day, 1 μM) was less than 1%, the “% Inhibition MtDNA” value ([3]; human, 14 day, 10 μM) was less than 1% and the “% Inhibition MtDNA” value ([3]; human, 14 day, 50 μM) was less than 1%.

For CCOC(=O)[C@H](C)NP(=O)(OC[C@H]1O[C@@H](n2cnc3c(N)nc(N)nc32)C(C)(O)C1O)Oc1ccccc1 (stereo partly drawn) [drawing 51], the “% Inhibition nuclear DNA” value [4, 7] was 4.0%, the “% Inhibition nuclear DNA” value [4, 8] was 20% and the “% Inhibition nuclear DNA” value [4, 9] was less than 1%. For the same molecule, the “% Inhibition MtDNA” value [3, 7] was less than 1%, the “% Inhibition MtDNA” value [3, 8] was 5.4% and the “% Inhibition MtDNA” value [3, 9] was less than 1%.

CC1(O)C(O)[C@@H](CO)O[C@H]1n1cnc2c(N)nc(N)nc21 (stereo partly drawn) [drawing 55] showed a CC50 at 5 day [1, 5] greater than 10 µM, an EC50 [2, 6] of 3700 nM and an EC90 ([2]; Huh-7, 120 h, HCV Replicon (Huh7), five days incubation, read-out: EC90) of 11 µM.

In the case of CCOC(=O)[C@H](C)NP(=O)(OC[C@H]1O[C@@H](n2cnc3c(N)nc(N)nc32)C(C)(O)C1O)Oc1ccccc1 (stereo partly drawn) [drawing 56], the CC50 at 5 day [1] is reported as greater than 10 µM, the EC50 ([2]; Huh-7, 120 h) is reported as 1300 nM and the EC90 ([2]; Huh-7, 120 h) is reported as 4.9 µM.
